Measured values reported in US10221392B2, “Generation of pancreatic endoderm from pluripotent stem cells using small molecules” (Novo Nordisk A/S, priority 2012, dated 2019).

Key:
Format in all cases: cell-based, human
[1] = test system: NKX6.1/PDX1 double positive cells; test: NKX6.1/PDX1 library screen, early phase (compounds on top of bFGF based PE media, first seven days); conditions: concentration at which the fraction of NKX6.1/PDX1 double positive cells was enhanced more than 200% compared the PE media
Procedure: Human embryonic stem (hES) cells line SA121 and human induced pluripotent stem cells (hiPSC) chIPS4 (Cellectis) were grown in DEF-CS culture media (Cellectis) in T75 culture flasks.
After 24 hours the cells were washed with RPMI1640 and treated with 100 ng/ml Activin A (Peprotech #120-14E) in RPMI1640. […] Cells were maintained at 37° C. and 5% CO2 in a humidified incubator during the differentiation.
The DE cells were seeded at 200 000/cm^2 in 96 well optical plates (BD Bioscience), and PE differentiation using screening compounds was initiated the following day.
Cells were washed three times with PBS. […] Cells were washed five times and left in 200 μL PBS for imaging.
(§1) Imaging was performed using the InCell Analyzer 2000 (GE Healthcare). 4 fields per well with 10× objective were captured. The total cell number based in the DAPI counterstaining and the number of NKX6.1/PDX1 double positive cells was determined using InCell Developer Toolbox 1.8 (GE Healthcare). The fraction of NKX6.1/PDX1 double positive cells was normalized to the benchmark on each plate and the % effect was calculated. Values above 200% effect were categorized as hits.
The compounds within the bioactive library were tested at 1 uM and 0.1 uM. Compounds from the other libraries were tested at 10 uM and 1 uM. In a second candidate based screening approach, small molecules that target the main signalling pathways involved in pancreas development were included.
The library PE screening approach was divided into an early and a late phase (FIG. 1).
In the early phase, compounds were tested on top of the PE media for the first seven days of PE differentiation, and then the differentiation was continued for additional six days using PE media without compounds.
The screen was divided into an early and a late phase (FIG. 1). In the early phase, compounds were tested on top of the PE media for the first seven days of PE differentiation, and then continued for additional six days using PE media without compounds. In the late phase, DE cells were differentiated in the PE media for the first seven days. In the following six days compounds were tested on top of the PE media. Twelve positive control wells (PE media) and 12 negative control wells (PE media without bFGF) were included in each 96 well plate. Media change was performed daily.

[2] = test system: NKX6.1/PDX1 double positive cells; test: Candidate based PE screen 1 (compounds in basal medium without bFGF, first eight days); conditions: compared to benchmark protocol (Ameri et al, 2010); hiPSC and hESC; FIG. 5
Procedure: Pluripotent stem (PS) cells were differentiated into definitive endoderm according to DE protocol (See general methods) and seeded in 96 well plates for screening. The pancreatic endoderm screen was divided into two parts. In screen 1, compounds were added to a basal medium (RPMI1640+0.1% PEST+12% KOSR) the first eight days of PE differentiation. Compounds were tested in 4 different time windows having 2 day increments and then cells were left to continue differentiation for another six days in the bFGF based published protocol (Ameri et al., 2010). In screen 2, cells were first differentiated for 4 days with the hit compounds from screen 1, then screening compounds were added the last 10 days to basal medium.
Human embryonic stem (hES) cells line SA121 and human induced pluripotent stem cells (hiPSC) chIPS4 (Cellectis) were grown in DEF-CS culture media (Cellectis) in T75 culture flasks. […]
as §1, with “4 fields per well with 10× objective were captured.” left out, “Values above 200% effect were categorized as hits.” left out

[3] = test system: NKX6.1/PDX1 double positive cells; test: Candidate based PE screen 2 (after 4 days hit compound of screen 1, compounds in basal medium for last 10 days); conditions: cells first exposed to hit compound from screen 1 for 4 days, compounds added for last 10 days; FIG. 5
Procedure: Pluripotent stem (PS) cells were differentiated into definitive endoderm according to DE protocol (See general methods) and seeded in 96 well plates for screening. The pancreatic endoderm screen was divided into two parts. In screen 1, compounds were added to a basal medium (RPMI1640+0.1% PEST+12% KOSR) the first eight days of PE differentiation. […] In screen 2, cells were first differentiated for 4 days with the hit compounds from screen 1, then screening compounds were added the last 10 days to basal medium.
Imaging was performed using the InCell Analyzer 2000 (GE Healthcare). […] The total cell number based in the DAPI counterstaining and the number of NKX6.1/PDX1 double positive cells was determined using InCell Developer Toolbox 1.8 (GE Healthcare). The fraction of NKX6.1/PDX1 double positive cells was normalized to the benchmark on each plate and the % effect was calculated. […]

Row | SMILES | hit concentration (Concentration) [1] | other results
1 | NC(=O)c1ccc2[nH]c(-c3ccc(Oc4ccc(Cl)cc4)cc3)nc2c1 [Chk2 Inhibitor II] | 10 µM | –
2 | O=c1cc(-c2cccc3c2Sc2ccccc2S3)oc(N2CCOCC2)c1 [ATM Kinase Inhibitor] | 10 µM | –
3 | c1ccc2c(-c3cnn4cc(-c5ccc(N6CCNCC6)cc5)cnc34)ccnc2c1 [LDN-193189] | – | hit identification and most effective time window, candidate screen 1 [2]: most effective when added for the first 4 days followed by 4 days basal medium
4 | Fc1ccc(-c2nc3n(c2-c2ccncc2)CCS3)cc1 [SKF-86002] | 10 µM | –
5 | COc1ccc(-c2cnc3c(-c4ccsc4)cnn3c2)cc1 [VEGF Receptor 2 Kinase Inhibitor IV] | 10 µM | –
6 | Cc1ccc2nc(NC(=O)CSc3nc4c(c(=O)n3-c3ccccc3)SCC4)sc2c1 [IWP2] | – | hit identification, candidate screen 2 [3]: hit compounds
7 | CC1=C2C[C@H]3[C@@H](CC=C4C[C@@H](O)CC[C@@]43C)[C@@H]2CC[C@]12O[C@@H]1C[C@H](C)CN[C@H]1[C@H]2C [Cyclopamine] | – | hit identification, candidate screen 2 [3]: hit compounds
